Results published in patent US20240325340A1, “ISOFORM SPECIFIC AGONISTS TARGETING AKT KINASE” (Thomas Jefferson University, priority 2021, published 2024).
Entries after “also recorded” stand apart in the source; their conditions may differ.

Experiments:
Akt [1] = test: Ceramide and cathepsin G blockade of insulin activation of Akt in H9C2 myoblasts; type: cell-based
Description: (§1) H9C2 myoblasts or neonatal rat myocytes were treated with neutrophil protease Cathepsin G (0.01 U/mL), 4 hr or with 100 μM C2-Ceramide (100 μM), 2 hr. Then cells were stimulated with insulin with or without 30 μM T625 for 30 minutes. Lysates were immunoblotted with the indicated antibodies.

recombinant pAkt1 = recombinant pAkt1 (Homo sapiens, UniProt P31749); test: Recombinant phospho-Akt dephosphorylation by PP2A or total cellular phosphatase extracts (immunoblot pT308); type: biochemical; conditions: 30 minutes at 30° C.
Description: FIG. 1A: Recombinant phospho-Akt (50 ng) were pre-mixed with DMSO or with 40 μM 4H-Chromenes with carboxylate side chain (SC-79 and HA-14) or with 60 μM malononitrile side chain (T625) at 4° C. Then recombinant PP2A (70 ng PP2A-C) or total cellular phosphatase extracts were added and incubated for 30 minutes at 30° C. After incubation, protein extracts were subjected to immunoblot analysis using antibodies detecting phosphorylated Akt (T308), total Akt and PP2A catalytic subunit. FIG. 1B comprises a graph showing the percentage of Akt dephosphorylation at 30 minutes (Dephos. %) (n=6) *P<0.01 vs. DMSO.

Compound stability = type: physicochemical
cells = test: Cellular toxicity (cells not specified); type: cell-based
[2] = cited from earlier work
Akt2-LT WT = target: T1, Akt2-LT WT (Homo sapiens, UniProt P31751); test: Phosphorylation of heterologously expressed Akt2-LT WT in H9C2 myoblasts; type: cell-based; conditions: serum-free media, 2 hr
T1 construct: expressed in transfected cells; host or cells: H9C2 myoblasts
Description: FIGS. 2A-2B: illustrate the finding that T625's position 6 analogues differentially activate Akt and induce cellular toxicity. FIG. 2A: To distinguish heterologous-expressed Akt from endogenous Akt, a 41 amino acid large tag containing the HA-epitope was fused with wild type Akt2 (Akt2-LT WT). H9C2 myoblasts over-expressing Akt2-LT WT were treated with insulin or indicated compounds in serum-free media for 2 hr. Phosphorylation of T309 and total Akt2 are shown. FIG. 2B: Cell images show A549 AT2 cell morphology after 24 hr of drug treatment.

[3] = system: E17-Y18-I19 and R23-R25 mutated Akt kinase (Akt1-LT); test: pT308 phosphorylation of mutated Akt1-LT constructs in H9C2 cells; type: cell-based; conditions: 2 μM insulin 15 minutes
Text: FIGS. 3A-3D: illustrate a model of T625 C-6 interaction space within the Akt PH domain and biochemical validation of the model. FIG. 3A: Model of the Akt2 PH-domain bound to T625 where all residue numbering corresponds to the Akt2 sequence. The C-6 Cl group act as the most optimal structural mimetic of the phosphate's electrostatic interactions with Arg23 and surrounding residues. […] To distinguish heterologous-expressed Akt from endogenous Akt, a 41 amino acid large tag containing the HA-epitope was fused with Akt1 (Akt1-LT) and specific mutations were created by site-directed mutagenesis. H9C2 cells expressing the indicated mutant constructs were stimulated for 15 minutes with 2 μM insulin, then switch to serum-free medium with 30 μM T625 as indicated for 60 minutes. […] H9C2 cells expressing the indicated mutant constructs were stimulated for 15 minutes with 2 μM insulin, then switch to serum-free medium with 20 μM T625 as indicated for 90 minutes. Phosphorylation of T308 in Akt1-LT and endogenous Akt, HA and GAPDH loading control blots are shown. FIG. 3D: Graph of specific pT308 phosphorylation in the indicated Akt1-LT constructs with or without T625 treatment. N is indicated.

Akt [4] = test: Ceramide and cathepsin G blockade of insulin activation of Akt in neonatal rat myocytes; type: cell-based; conditions: 30 μM T625 with insulin, 30 minutes
Description: as §1

Akt [5] = test: Aerosolized inhalation (FlexiVent) Akt activation in mouse lung; type: in vivo
Description: 8 week old (wk) wild type mice were deprived of food overnight. Anesthetized mice were intubated on the FlexiVent system and challenged with aerosolized inhaled insulin or T625 as indicated. Lung tissue was harvested 20 minutes after drug inhalation. Extracts were immunoblotted with indicated antibodies.
(§2) A FlexiVent system (SCIREQ) was used to deliver Akt activator, T625, directly to mouse lung. This procedure closely mimics the clinical application of inhaled insulin. […] Akt activators were also administered in the setting of mouse cardiac ischemia-reperfusion injury model (FIGS. 13A-13C). T625 was directly injected into the left ventricular free wall at the time of ischemic ligation of exteriorized heart. Also, to mimic clinical use, (IP) Akt activators were intraperitoneally injected within 10 min after ischemia initiation. It was shown that both directly applied and intraperitoneally injected Akt activators activated Akt in the heart. Finally, a splinted murine excisional wound model that mimic human wound healing was used. Akt activators were placed directly into the wound ring, mimicking the clinical topical application of growth factors.

Akt [6] = test: Mouse cardiac ischemia-reperfusion injury model, Akt activation in heart; type: in vivo; conditions: directly injected or intraperitoneally injected after ischemic-ligation
Description: FIG. 13A: A schematic of ischemic-reperfusion procedure indicating drug injection time and heart harvest time. FIG. 13B: Illustrates immunoblots of pS473, Akt phospho-substrate, pPRAS40 and GAPDH in the WES auto-western system. After ischemic-ligation, T625 (0.8 μg in 20 μl PBS) were directly injected at three spots of exposed ventricular wall. Injected insulin was used as a control. FIG. 13C: Illustrates immunoblots of pT308, total Akt (tAkt) and GAPDH and quantified pT308/tAkt ratio. After ischemic-ligation, T620 and T625 were directly injected or intraperitoneally injected.
as §2, with “Akt activators were placed directly into the wound ring, mimicking the clinical topical application of growth factors.” left out

Akt [7] = test: Akt activation (phospho-T308, p-PRAS40) in human epithelial cells (Hacat); type: cell-based; conditions: for efficacy in Akt activation compared to RA97 / length of action in Akt activation compared to RA97 / phosphorylation of Akt substrate PRAS40: 40 μM, serum-starved Hacat; for efficacy in Akt activation compared to RA97 / length of action in Akt activation compared to RA97: 2 hr, 4 hr or 24 hr; for synergy with FBS in Akt activation: 10 μM or 20 μM with 0.25% fetal bovine serum; for synergy with FBS in Akt activation / Akt activation at low dose (phospho-T308): Hacat; for synergy with FBS in Akt activation / Akt activation at low dose (phospho-T308) / phosphorylation of Akt substrate PRAS40: 6 hr; for Akt activation at low dose (phospho-T308): 10 μM or 20 μM
Description: FIGS. 6A-6D illustrate immunoblots for Akt activators converted from non-PAINS Akt antagonists. FIG. 6A: 40 μM of each compound derived from sulfonamides, di-tert butylphenols, or pyridines were incubated in human epithelial cells (A549) for 2.5 hr. Lysates were probed for phospho-T308 and total Akt (tAkt) using ProteinSimple WES digital western system. Insulin was uses as positive control. […] 40 μM of each compound was incubated in serum-starved human epithelial cells (Hacat) for 2 hr, 4 hr, or 24 hr as indicated. Cell lysates were probed for phospho-T308 and total Akt (tAkt). […] 10 μM or 20 μM of T775 or T776 were incubated with or without 0.25% fetal bovine serum (FBS) medium in human epithelial cells (Hacat) for 6 hr. Cell lysates were probed for phospho-T308, total Akt (tAkt), and GAPDH. […] 40 μM of each compound was incubated in serum-starved human epithelial cells (Hacat) for 6 hr. Cell lysates were probed for phospho-T308, total Akt (tAkt), Akt substrate, p-PRAS40, and GAPDH.

A549 cells = test: Cytotoxicity by release of lactate dehydrogenase (LDH) in A549 cells; type: cell-based, human; conditions: 40 μM, 24 hours, serum-free media
Description: Cytotoxicity was determined by the release of lactate dehydrogenase (LDH) into cell culture media. A549 cells were incubated with 40 μM of each compound for 24 hours in serum-free media (n=3 for each compound). FIG. 8B: A visual assessment of cell morphology after 24 hrs treatment with 40 μM of each compound in serum-free media. 100× images are shown.

Hacat cells = test: Cellular toxicity / cell morphology in Hacat cells after 24 hrs; type: cell-based, human; conditions: 40 μM

Sequence of recombinant pAkt1 (P31749 whole entry): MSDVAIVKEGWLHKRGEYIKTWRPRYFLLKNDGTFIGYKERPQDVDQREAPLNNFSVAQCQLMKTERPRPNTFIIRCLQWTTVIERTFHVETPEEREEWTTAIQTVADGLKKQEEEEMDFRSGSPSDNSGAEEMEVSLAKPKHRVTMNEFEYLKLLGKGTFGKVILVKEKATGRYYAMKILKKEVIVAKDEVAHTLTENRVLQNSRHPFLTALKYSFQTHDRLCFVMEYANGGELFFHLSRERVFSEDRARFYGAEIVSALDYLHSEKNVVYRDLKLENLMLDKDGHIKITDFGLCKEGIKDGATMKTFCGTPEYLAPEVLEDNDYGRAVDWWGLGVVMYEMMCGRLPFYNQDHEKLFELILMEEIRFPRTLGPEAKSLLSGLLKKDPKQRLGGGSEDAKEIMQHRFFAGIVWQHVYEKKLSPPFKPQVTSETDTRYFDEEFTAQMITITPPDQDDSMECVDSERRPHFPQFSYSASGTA
T1 sequence (P31751 whole entry): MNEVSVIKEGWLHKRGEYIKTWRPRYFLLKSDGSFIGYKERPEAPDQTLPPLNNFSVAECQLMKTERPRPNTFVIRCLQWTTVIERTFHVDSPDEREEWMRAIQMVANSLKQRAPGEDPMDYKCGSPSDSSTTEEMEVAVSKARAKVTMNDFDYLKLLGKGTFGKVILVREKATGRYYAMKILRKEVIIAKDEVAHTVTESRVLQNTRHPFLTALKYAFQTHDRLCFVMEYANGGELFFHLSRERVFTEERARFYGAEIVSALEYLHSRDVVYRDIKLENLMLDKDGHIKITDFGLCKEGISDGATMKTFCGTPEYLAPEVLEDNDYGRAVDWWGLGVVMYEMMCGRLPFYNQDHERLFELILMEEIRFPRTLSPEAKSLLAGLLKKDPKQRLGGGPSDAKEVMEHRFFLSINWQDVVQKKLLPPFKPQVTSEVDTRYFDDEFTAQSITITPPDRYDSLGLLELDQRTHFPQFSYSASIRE

CCCCCCCCCCCCC/C=C/[C@@H](O)[C@H](CO)NC(C)=O [C2-ceramide, reference compound]
block of insulin activation of Akt (Akt [1]; 100 μM, 2 hr): block insulin activation of Akt

CCOC(=O)C1=C(N)Oc2ccc(Br)cc2C1C(C#N)C(=O)OCC (centres unmarked) [HA14]
block of recombinant pAkt1 dephosphorylation by PP2A and cellular phosphatases (recombinant pAkt1; 40 μM compound): enhance intrinsic resistance of the Akt kinase to dephosphorylation; also recorded: block recombinant pAkt1 dephosphorylation by PP2A and cellular phosphatases | compound stability (Compound stability): highly labile | cellular toxicity (cells): toxic to cells

CCOC(=O)C1=C(N)Oc2ccc(Cl)cc2C1C(C#N)C(=O)OCC (centres unmarked) [SC79]
block of recombinant pAkt1 dephosphorylation by PP2A and cellular phosphatases (recombinant pAkt1; 40 μM compound): enhance intrinsic resistance of the Akt kinase to dephosphorylation; also recorded: block recombinant pAkt1 dephosphorylation by PP2A and cellular phosphatases | compound stability (Compound stability): highly labile | cellular toxicity (cells): toxic to cells

CC(C)(Sc1cc(C(C)(C)C)c(O)c(C(C)(C)C)c1)Sc1cc(C(C)(C)C)c(OC(=O)CCC(=O)O)c(C(C)(C)C)c1 [Succinobucol]
insulin sensitivity ([2]; literature): improve insulin sensitivity | drug safety ([2]; numerous clinical trials of specific diabetic patient populations): established drug safety record

N#CC1=C(N)Oc2ccc(Cl)cc2C1C(C#N)C#N (centres unmarked) [T625, 2-(2-amino-6-chloro-3-cyano-4H-chromen-4-yl)propanedinitrile]
block of recombinant pAkt1 dephosphorylation by PP2A and cellular phosphatases (recombinant pAkt1; 60 μM compound): block recombinant pAkt1 dephosphorylation by PP2A and cellular phosphatases | Akt activation in cells (phosphorylation of T309 of Akt2-LT WT) (Akt2-LT WT): retaining Akt activation; also recorded: activate Akt | effect on phosphorylation of mutated Akt kinase ([3]; E17-Y18-I19 and R23-R25 mutants, then 30 μM T625 60 minutes): acts as an inhibitor | effect on phosphorylation of mutated Akt kinase ([3]; mutations in E17 and/or 119, then 20 μM T625 90 minutes): converting the T625 response from activation to inhibition | rescue of ceramide and cathepsin G blockade of Akt activation by insulin (Akt [1]; H9C2 myoblasts, 30 μM T625 with insulin, 30 minutes): rescues ceramide and cathepsin G blockade of Akt activation | rescue of ceramide and cathepsin G blockade of Akt activation by insulin (Akt [4]): rescues ceramide and cathepsin G blockade of Akt activation | Akt kinase activation in mouse lung (Akt [5]; 60 μg, delivered directly to mouse lung by FlexiVent): retaining Akt activation; also recorded: robustly activated Akt kinase in mouse lung | insulin sensitivity in vivo (Akt [5]; aerosolized inhaled, lung tissue harvested 20 minutes after inhalation): enhanced insulin sensitivity | Akt activation in mouse lung tissue in combination with insulin (Akt [5]; suboptimal dose 15 μg with suboptimal insulin dose 5 μg): cooperated with suboptimal insulin dose (5 μg) to activate Akt in mouse lung tissue | Akt activation in mouse heart during ischemia-reperfusion (Akt [6]): enhanced Akt activation in mouse heart | compound stability (Compound stability): enhanced compound stability | cellular toxicity (cells): dramatically reduced cellular toxicity

CCCc1nc2ccc(Cl)cc2c(-c2ccccc2)c1C(=O)OCC [T748, ethyl 6-chloro-4-phenyl-2-propylquinoline-3-carboxylate]
efficacy in Akt activation compared to RA97 (Akt [7]): improved efficacy | length of action in Akt activation compared to RA97 (Akt [7]): improved length of action | toxicity compared to RA97 (cells): lack of toxicity

CCCc1nc2ccc(Cl)cc2c(CCC(=O)OCC)c1C(=O)OCC [T775, ethyl 6-chloro-4-(3-ethoxy-3-oxopropyl)-2-propylquinoline-3-carboxylate]
synergy with FBS in Akt activation (Akt [7]): synergize with FBS | Akt activation at low dose (phospho-T308) (Akt [7]): activate Akt | efficacy in Akt activation compared to RA97 (Akt [7]): improved efficacy | length of action in Akt activation compared to RA97 (Akt [7]): improved length of action | phosphorylation of Akt substrate PRAS40 (Akt [7]): phosphorylated Akt substrate, PRAS40 | cellular toxicity (LDH release) (A549 cells): failed to show significant cellular toxicity | cellular toxicity (Hacat cells): failed to show significant cellular toxicity | toxicity compared to RA97 (cells): lack of toxicity

CCOC(=O)CCc1c(C(=O)OCC)c(C(C)(C)C)nc2ccc(Cl)cc12 [T776, ethyl 2-tert-butyl-6-chloro-4-(3-ethoxy-3-oxopropyl)quinoline-3-carboxylate]
synergy with FBS in Akt activation (Akt [7]): synergize with FBS | Akt activation at low dose (phospho-T308) (Akt [7]): activate Akt | efficacy in Akt activation compared to RA97 (Akt [7]): improved efficacy | length of action in Akt activation compared to RA97 (Akt [7]): improved length of action | phosphorylation of Akt substrate PRAS40 (Akt [7]): phosphorylated Akt substrate, PRAS40 | cellular toxicity (LDH release) (A549 cells): failed to show significant cellular toxicity | cellular toxicity (Hacat cells): failed to show significant cellular toxicity | toxicity compared to RA97 (cells): lack of toxicity

B1: cathepsin G: neutrophil protease Cathepsin G (protein, UniProt P08311 21-244, looked up)
Cathepsin G: IIGGRESRPHSRPYMAYLQIQSPAGQSRCGGFLVREDFVLTAAHCWGSNINVTLGAHNIQRRENTQQHITARRAIRHPQYNQRTIQNDIMLLQLSRRVRRNRNVNPVALPRAQEGLRPGTLCTVAGWGRVSMRRGTDTLREVQLRVQRDRQCLRIFGSYDPRRQICVGDRRERKAAFKGDSGGPLLCNNVAHGIVSYGKSSGVPPEVFTRVSSFLPWIRTTMRS
block of insulin activation of Akt (Akt [1]; 0.01 U/mL, 4 hr): block insulin activation of Akt
